Columns and labels:
Experiment in all cases: relative viability (nuclei count vs DMSO), 5 days (fraction); higher = more cells survive
[1] = test system: EPLC-272H
Summary of the method: (§1)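 Relative viability equals treated-well nuclei counts divided by vehicle-well nuclei counts. Counts came from 4× images of lung cancer cell lines grown in 1536-well plates for 5 days after pin-tool dosing on the day after seeding. Dosing used one drug alone or a fixed anchor-drug dose plus five library-drug doses (not always all listed) in √10 steps, and values are medians of duplicate plates.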

[2] = test system: H3255
Summary of the method: as §1

[3] = test system: HARA
Summary of the method: as §1

[4] = test system: LC-2-ad
Summary of the method: as §1

[5] = test system: LOU-NH91
Summary of the method: as §1

[6] = test system: NCI-H1650
Summary of the method: as §1

[7] = test system: NCI-H1651
Summary of the method: as §1

[8] = test system: NCI-H1975
Summary of the method: as §1

[9] = test system: NCI-H2009
Summary of the method: as §1

[10] = test system: NCI-H2023
Summary of the method: as §1

[11] = test system: NCI-H2085
Summary of the method: as §1

[12] = test system: NCI-H2087
Summary of the method: as §1

[13] = test system: NCI-H2170
Summary of the method: as §1

[14] = test system: NCI-H2228
Summary of the method: as §1

[15] = test system: NCI-H23
Summary of the method: as §1

[16] = test system: NCI-H441
Summary of the method: as §1

[17] = test system: NCI-H650
Summary of the method: as §1

[18] = test system: NCI-H727
Summary of the method: as §1

[19] = test system: NCI-H838
Summary of the method: as §1

[20] = test system: PC-3 [JPC-3]
Summary of the method: as §1

[21] = test system: SW 1573
Summary of the method: as §1

[22] = test system: SW 900
Summary of the method: as §1

[23] = test system: UMC-11
Summary of the method: as §1

Cc1csc(=NC2CCCCC2)n1/N=C/c1ccc(O)c(O)c1O [MIM1] + COc1cccc2cc(-c3nc([C@H]4CC[C@H](C(=O)O)CC4)n4ncnc(N)c34)[nH]c12 [OSI-027] (partner 0.5 µM)
relative viability ([1]; first compound 0.2 µM): 0.254
relative viability ([1]; first compound 0.6325 µM): 0.269
relative viability ([1]; first compound 2 µM): 0.308
relative viability ([1]; first compound 6.325 µM): 0.24
relative viability ([1]; first compound 20 µM): 0.141
relative viability ([2]; first compound 0.2 µM): 0.596
relative viability ([2]; first compound 0.6325 µM): 0.575
relative viability ([2]; first compound 2 µM): 0.572
relative viability ([2]; first compound 6.325 µM): 0.519
relative viability ([2]; first compound 20 µM): 0.313
relative viability ([3]; first compound 0.2 µM): 0.503
relative viability ([3]; first compound 2 µM): 0.547
relative viability ([3]; first compound 6.325 µM): 0.166
relative viability ([3]; first compound 20 µM): 0.0624
relative viability ([4]; first compound 0.2 µM): 0.909
relative viability ([4]; first compound 0.6325 µM): 0.591
relative viability ([4]; first compound 2 µM): 0.754
relative viability ([4]; first compound 6.325 µM): 0.373
relative viability ([4]; first compound 20 µM): 0.218
relative viability ([5]; first compound 0.2 µM): 0.721
relative viability ([5]; first compound 0.6325 µM): 0.692
relative viability ([5]; first compound 2 µM): 0.64
relative viability ([5]; first compound 6.325 µM): 0.694
relative viability ([5]; first compound 20 µM): 0.635
relative viability ([6]; first compound 0.2 µM): 0.653
relative viability ([6]; first compound 0.6325 µM): 0.668
relative viability ([6]; first compound 2 µM): 0.447
relative viability ([6]; first compound 6.325 µM): 0.164
relative viability ([6]; first compound 20 µM): 0.147
relative viability ([7]; first compound 0.2 µM): 0.745
relative viability ([7]; first compound 0.6325 µM): 0.806
relative viability ([7]; first compound 2 µM): 0.63
relative viability ([7]; first compound 6.325 µM): 0.611
relative viability ([7]; first compound 20 µM): 0.612
relative viability ([8]; first compound 0.2 µM): 0.704
relative viability ([8]; first compound 0.6325 µM): 0.734
relative viability ([8]; first compound 2 µM): 0.584
relative viability ([8]; first compound 6.325 µM): 0.36
relative viability ([8]; first compound 20 µM): 0.336
relative viability ([9]; first compound 0.2 µM): 0.697
relative viability ([9]; first compound 0.6325 µM): 0.685
relative viability ([9]; first compound 2 µM): 0.684
relative viability ([9]; first compound 6.325 µM): 0.424
relative viability ([9]; first compound 20 µM): 0.142
relative viability ([10]; first compound 0.2 µM): 0.422
relative viability ([10]; first compound 0.6325 µM): 0.501
relative viability ([10]; first compound 2 µM): 0.305
relative viability ([10]; first compound 6.325 µM): 0.182
relative viability ([10]; first compound 20 µM): 0.0588
relative viability ([11]; first compound 0.2 µM): 0.676
relative viability ([11]; first compound 0.6325 µM): 0.808
relative viability ([11]; first compound 2 µM): 0.712
relative viability ([11]; first compound 6.325 µM): 0.565
relative viability ([11]; first compound 20 µM): 0.446
relative viability ([12]; first compound 0.2 µM): 0.688
relative viability ([12]; first compound 0.6325 µM): 0.511
relative viability ([12]; first compound 2 µM): 0.696
relative viability ([12]; first compound 6.325 µM): 0.547
relative viability ([12]; first compound 20 µM): 0.34
relative viability ([13]; first compound 0.2 µM): 0.714
relative viability ([13]; first compound 0.6325 µM): 0.595
relative viability ([13]; first compound 2 µM): 0.637
relative viability ([13]; first compound 6.325 µM): 0.461
relative viability ([13]; first compound 20 µM): 0.2
relative viability ([14]; first compound 0.2 µM): 0.773
relative viability ([14]; first compound 0.6325 µM): 0.502
relative viability ([14]; first compound 2 µM): 0.653
relative viability ([14]; first compound 6.325 µM): 0.217
relative viability ([14]; first compound 20 µM): 0.137
relative viability ([15]; first compound 0.2 µM): 0.53
relative viability ([15]; first compound 2 µM): 0.563
relative viability ([15]; first compound 6.325 µM): 0.306
relative viability ([15]; first compound 20 µM): 0.156
relative viability ([16]; first compound 0.2 µM): 0.575
relative viability ([16]; first compound 2 µM): 0.625
relative viability ([16]; first compound 6.325 µM): 0.472
relative viability ([16]; first compound 20 µM): 0.191
relative viability ([17]; first compound 0.2 µM): 0.563
relative viability ([17]; first compound 0.6325 µM): 0.414
relative viability ([17]; first compound 2 µM): 0.484
relative viability ([17]; first compound 6.325 µM): 0.533
relative viability ([17]; first compound 20 µM): 0.36
relative viability ([18]; first compound 0.2 µM): 0.619
relative viability ([18]; first compound 0.6325 µM): 0.712
relative viability ([18]; first compound 2 µM): 0.599
relative viability ([18]; first compound 6.325 µM): 0.552
relative viability ([18]; first compound 20 µM): 0.338
relative viability ([19]; first compound 0.2 µM): 0.469
relative viability ([19]; first compound 0.6325 µM): 0.428
relative viability ([19]; first compound 2 µM): 0.397
relative viability ([19]; first compound 6.325 µM): 0.373
relative viability ([19]; first compound 20 µM): 0.169
relative viability ([20]; first compound 0.2 µM): 0.749
relative viability ([20]; first compound 0.6325 µM): 0.733
relative viability ([20]; first compound 2 µM): 0.647
relative viability ([20]; first compound 6.325 µM): 0.657
relative viability ([20]; first compound 20 µM): 0.545
relative viability ([21]; first compound 0.2 µM): 0.689
relative viability ([21]; first compound 0.6325 µM): 0.724
relative viability ([21]; first compound 2 µM): 0.544
relative viability ([21]; first compound 6.325 µM): 0.46
relative viability ([21]; first compound 20 µM): 0.0875
relative viability ([22]; first compound 0.2 µM): 0.54
relative viability ([22]; first compound 0.6325 µM): 0.789
relative viability ([22]; first compound 2 µM): 0.703
relative viability ([22]; first compound 6.325 µM): 0.441
relative viability ([22]; first compound 20 µM): 0.191
relative viability ([23]; first compound 0.2 µM): 0.504
relative viability ([23]; first compound 2 µM): 0.579
relative viability ([23]; first compound 6.325 µM): 0.397
relative viability ([23]; first compound 20 µM): 0.264

Reference: the supplement of paper PMC10307832
